Like-named read-outs stand apart in the source and are kept apart here. Positions of bridges follow the written chain, without caps; N, C: chain ends. Non-standard residues stand in square brackets, D forms with d. Residues, ends and D or L forms follow the SMILES beside them. No end group written: not given here.
What was measured:
SARS-CoV-2 [1] = test system: SARS-CoV-2
[2] = test system: herpes simplex virus type 1 (HSV-1); assay: HSV-1 replication in primary explants of human nasal mucosa (qPCR); assay type: cell-based; settings: 36 hours
Experimental: The replication of herpes simplex virus type 1 (HSV-1) was performed in primary explants of human nasal mucosa, according to Glorieux et al. (Glorieux et al. 2011, PLoS ONE, 6(7): e22160, doi: 10.1371/journal.pone.0022160). […] Afterwards, the cultures were washed and kept at 37° C. and 5% CO2 for 36 hours, in presence of the peptides in culture medium. The cultures were harvested, and HSV-1 was quantified by qPCR. The percentages of viral inhibition ranged from 70 to 92% in presence of the peptides (Table 5).

SARS-CoV-2 [3] = test system: SARS-CoV-2; remark: listed apart in the source
[4] = test system: respiratory syncytial virus (RSV); assay: Respiratory syncytial virus replication in bronchial HAE (RT-qPCR); assay type: cell-based; settings: 50 μM, 10 days
Influenza A H1N1 = assay type: cell-based; settings: 50 μM; tracheo-bronchial HAE
AdV 7 Gomen strain = assay: Adenovirus type 7 replication in bronchial HAE (qPCR); assay type: cell-based; settings: 50 μM, 24 hours
human bocavirus (HBoV) = assay: Human bocavirus replication in tracheal HAE (qPCR NS1 region); assay type: cell-based; settings: 50 μM, 72 hours
SARS-CoV-2 [5] = test system: SARS-CoV-2; remark: listed apart in the source
[6] = test system: Parainfluenza virus type 3 (HPIV3); assay type: cell-based; settings: 50 μM; HAE, 3 days
Dengue 2 virus = Dengue 2 virus replication in primary cultures of lung cells (PFU in VeroE6); assay type: cell-based; settings: 48 hours
Experimental: The cultures were treated with the peptides for 2 or 24 hours, at concentrations of 0.01 to 100 μM before viral challenge. The medium was discarded and the cells were infected with Dengue 2 virus, at an MOI of 10 for 2 hours at 37° C. and 5% CO2. The virus was eliminated, a wash was then performed and the cultures were treated again with peptides in DMEM medium, and incubated for 48 hours at 37° C. and 5% CO2. Subsequently, the cultures were collected to assess viral performance on VeroE6 cells. For this, the cells were seeded in 24-well plates and when they reached confluence they were infected with serial 10-fold dilutions of the supernatants, incubated for 1 hour at 37° C. and 5% CO2. Next, a wash was carried out with PBS, and a layer of agar in 2× DMEM (1:1) added. The layer was allowed to solidify and incubated for 48 hours at 37° C. 5% CO2. The plates were stained with crystal violet, for the determination of the number of PFUs. The peptides inhibited between 68 and 88% of viral replication (Table 5).

[7] = biological target: T1, Dengue 2 virus capsid protein (Dengue virus type 2, UniProt P29990); assay: BIACORE surface plasmon resonance interaction with immobilized peptide; assay type: binding
T1 construct: with the Dengue 2 virus capsid protein

Protein N (SARS-CoV-2) = Protein N (SARS-CoV-2) (Severe acute respiratory syndrome coronavirus 2, UniProt P0DTC9); assay: as above; assay type: binding; settings: analyte 10-200 nM
NS1-D2 (Dengue) = biological target: T2, NS1-D2 (Dengue) (Dengue virus type 2, UniProt P29990); assay: as above; assay type: binding, Dengue virus 2
T2 construct: the non-structural protein 1 of the Dengue virus 2 (NS1-D2)

ZIKV E protein (Zika) = biological target: T3, ZIKV E protein (Zika) (Zika virus, UniProt A0A024B7W1); assay: as above; assay type: binding
T3 construct: the envelope protein of the Zika virus (ZIKV E)

[8] = test system: capsid protein of the Influenza H1N1 virus; assay: as above; assay type: binding

T2 sequence (P29990 776-1127 limits assumed): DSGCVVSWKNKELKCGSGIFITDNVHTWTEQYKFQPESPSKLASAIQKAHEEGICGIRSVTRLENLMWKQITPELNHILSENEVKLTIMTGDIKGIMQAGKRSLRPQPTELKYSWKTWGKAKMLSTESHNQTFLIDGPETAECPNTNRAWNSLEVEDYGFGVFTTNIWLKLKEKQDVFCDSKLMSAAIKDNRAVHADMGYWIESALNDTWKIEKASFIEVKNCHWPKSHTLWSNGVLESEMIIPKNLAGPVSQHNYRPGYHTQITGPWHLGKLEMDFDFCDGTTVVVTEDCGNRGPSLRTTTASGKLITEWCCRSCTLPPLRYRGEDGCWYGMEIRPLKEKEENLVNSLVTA
T3 sequence (A0A024B7W1 291-794): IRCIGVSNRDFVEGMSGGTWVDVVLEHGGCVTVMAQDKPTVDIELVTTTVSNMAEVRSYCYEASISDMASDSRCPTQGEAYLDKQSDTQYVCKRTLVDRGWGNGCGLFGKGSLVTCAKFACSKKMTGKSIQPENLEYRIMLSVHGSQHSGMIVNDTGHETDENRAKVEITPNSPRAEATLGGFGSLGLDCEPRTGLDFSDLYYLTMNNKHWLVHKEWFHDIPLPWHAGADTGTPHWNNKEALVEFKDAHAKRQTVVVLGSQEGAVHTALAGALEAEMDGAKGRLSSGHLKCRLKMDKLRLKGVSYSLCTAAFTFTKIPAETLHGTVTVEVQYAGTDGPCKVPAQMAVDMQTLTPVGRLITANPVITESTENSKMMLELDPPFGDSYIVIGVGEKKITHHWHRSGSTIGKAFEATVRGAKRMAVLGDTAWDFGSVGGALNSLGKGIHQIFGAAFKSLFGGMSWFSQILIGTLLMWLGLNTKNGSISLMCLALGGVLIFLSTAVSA
T1 sequence (P29990 1-100 limits assumed): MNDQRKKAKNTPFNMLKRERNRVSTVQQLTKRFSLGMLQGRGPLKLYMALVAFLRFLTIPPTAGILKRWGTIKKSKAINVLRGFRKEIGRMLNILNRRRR

CSCC[C@@H]1NC(=O)[C@H](Cc2c[nH]c3ccccc23)NC(=O)[C@@H](NC(=O)[C@H](C)NC(=O)[C@H](CCC(N)=O)NC(=O)[C@@H]2CCCN2C(=O)[C@@H]2CCCN2C(=O)[C@H](CCCNC(=N)N)NC(=O)[C@H](CCCNC(=N)N)NC(=O)[C@H](CCCNC(=N)N)NC(=O)[C@H](CCC(N)=O)NC(=O)[C@H](CCCNC(=N)N)NC(=O)[C@H](CCCNC(=N)N)NC(=O)[C@H](CCCCN)NC(=O)[C@H](CCCCN)NC(=O)[C@H](CCCNC(=N)N)NC(=O)CN)CSSC[C@@H](C(=O)O)NC(=O)[C@H]([C@@H](C)O)NC(=O)CNC(=O)[C@H](CC(C)C)NC(=O)[C@H](Cc2c[nH]cn2)NC(=O)[C@H](CCCNC(=N)N)NC(=O)[C@@H]2CCCN2C(=O)[C@H](CO)NC1=O [Peptide SEQ ID NO: 23] (H-GRKKRRQRRRPPQACWMSPRHLGTC-OH; disulfide 15-25; N-terminus and C-terminus assumed)
IC50 (SARS-CoV-2 [1]): 3800 nM

CSCC[C@H](NC(=O)[C@H](CCC(N)=O)NC(=O)[C@@H](NC(=O)[C@@H](NC(=O)[C@H](CCCNC(=N)N)NC(C)=O)C(C)C)[C@@H](C)O)C(=O)N[C@H](CC(N)=O)C(=O)N[C@@H](CC(C)C)C(=O)N[C@@H](CC(N)=O)C(=O)N[C@@H](CC(=O)O)C(=O)N[C@@H](CCCNC(=N)N)C(=O)N[C@@H](CC(C)C)C(=O)N[C@@H](C)C(=O)N[C@@H](CO)C(=O)N[C@@H](CC(C)C)C(=O)N[C@@H](Cc1ccc(O)cc1)C(=O)N[C@@H](CC(=O)O)C(=O)N[C@@H](CCCCN)C(=O)N[C@H](C(=O)O)C(C)C [SEQ ID NO: 3] (Ac-RVTQM[dN]LNDRLASLYDKV-OH; C-terminus assumed)
Herpes simplex HSV-1 Inhib. % ([2]; 50 μM): 73%
Inhibition % (SARS-CoV-2 [3]; 96 h, 100 μM): 85.4%
Sincitial respiratory virus Inhib. % [4]: 87%
Influenza A H1N1 Inhib. % (Influenza A H1N1): 93%
Adenovirus Ad7 Inhib. % (AdV 7 Gomen strain): 82%
Bocavirus HBoV-1 Inhib. % (human bocavirus (HBoV)): 80%

CSCC[C@H](NC(=O)[C@H](CCC(N)=O)NC(=O)[C@@H](NC(=O)[C@@H](NC(=O)[C@H](CCCNC(=N)N)NC(C)=O)C(C)C)[C@@H](C)O)C(=O)N[C@@H](CC(N)=O)C(=O)N[C@@H](CC(C)C)C(=O)N[C@H](CC(N)=O)C(=O)N[C@@H](CC(=O)O)C(=O)N[C@@H](CCCNC(=N)N)C(=O)N[C@@H](CC(C)C)C(=O)N[C@@H](C)C(=O)N[C@@H](CO)C(=O)N[C@@H](CC(C)C)C(=O)N[C@@H](Cc1ccc(O)cc1)C(=O)N[C@@H](CC(=O)O)C(=O)N[C@@H](CCCCN)C(=O)N[C@H](C(=O)O)C(C)C [SEQ ID NO: 4] (Ac-RVTQMNL[dN]DRLASLYDKV-OH; C-terminus assumed)
Inhibition % (SARS-CoV-2 [3]; 96 h, 100 μM): 92.4%
Bronchial HAE Inhibition % (SARS-CoV-2 [5]; 72 h, 100 μM): 85%
Nasal HAE Inhibition % (SARS-CoV-2 [5]; 72 h, 100 μM): 80%

CSCC[C@H](NC(=O)[C@H](CCC(N)=O)NC(=O)[C@@H](NC(=O)[C@@H](NC(=O)[C@H](CCCNC(=N)N)NC(C)=O)C(C)C)[C@@H](C)O)C(=O)N[C@@H](CC(N)=O)C(=O)N[C@@H](CC(C)C)C(=O)N[C@@H](CC(N)=O)C(=O)N[C@H](CC(=O)O)C(=O)N[C@@H](CCCNC(=N)N)C(=O)N[C@@H](CC(C)C)C(=O)N[C@@H](C)C(=O)N[C@@H](CO)C(=O)N[C@@H](CC(C)C)C(=O)N[C@@H](Cc1ccc(O)cc1)C(=O)N[C@@H](CC(=O)O)C(=O)N[C@@H](CCCCN)C(=O)N[C@H](C(=O)O)C(C)C [SEQ ID NO: 5] (Ac-RVTQMNLN[dD]RLASLYDKV-OH; C-terminus assumed)
Inhibition % (SARS-CoV-2 [3]; 96 h, 100 μM): 85.3%

Ac-RVTQMNLNDRLASLYDKV [SEQ ID NO: 2]
Parainfluenza Type 3 Inhib. % [6]: 89%
Inhibition % (SARS-CoV-2 [3]; 96 h, 50 μM): 95.1%
Sincitial respiratory virus Inhib. % [4]: 83%
Influenza A H1N1 Inhib. % (Influenza A H1N1): 90%
Dengue 2 Inhib. % (Dengue 2 virus; 50 μM): 88%
Kd [7]: 754 nM
Kd (Protein N (SARS-CoV-2)): 523 nM
Bronchial HAE Inhibition % (SARS-CoV-2 [5]; 72 h, 50 μM): 90%
Nasal HAE Inhibition % (SARS-CoV-2 [5]; 72 h, 50 μM): 80%
interaction (NS1-D2 (Dengue)): showed interaction
Kd (ZIKV E protein (Zika)): 18200 nM
interaction (ZIKV E protein (Zika)): showed interaction
Kd [8]: 24.3 nM
interaction [8]: showed interaction

NDRLASLYDKV [SEQ ID NO: 14]
Inhibition % (SARS-CoV-2 [3]; 96 h, 50 μM): 83.2%
Sincitial respiratory virus Inhib. % [4]: 82%
Influenza A H1N1 Inhib. % (Influenza A H1N1): 79%
Dengue 2 Inhib. % (Dengue 2 virus; 50 μM): 70%
Kd [7]: 5910 nM
Kd (Protein N (SARS-CoV-2)): 1140 nM
interaction (NS1-D2 (Dengue)): showed interaction
Kd (ZIKV E protein (Zika)): 3200 nM
interaction (ZIKV E protein (Zika)): showed interaction
Kd [8]: 4670 nM
interaction [8]: showed interaction

NLNDRLASLYDKV [SEQ ID NO: 15]
Herpes simplex HSV-1 Inhib. % ([2]; 50 μM): 81%
Parainfluenza Type 3 Inhib. % [6]: 69%
Inhibition % (SARS-CoV-2 [3]; 96 h, 50 μM): 87.1%
Kd [7]: 1270 nM
Kd (Protein N (SARS-CoV-2)): 7820 nM
Adenovirus Ad7 Inhib. % (AdV 7 Gomen strain): 78%
Bronchial HAE Inhibition % (SARS-CoV-2 [5]; 72 h, 50 μM): 90%
Nasal HAE Inhibition % (SARS-CoV-2 [5]; 72 h, 50 μM): 86%
interaction (NS1-D2 (Dengue)): showed interaction
Kd (ZIKV E protein (Zika)): 62.4 nM
interaction (ZIKV E protein (Zika)): showed interaction
Kd [8]: 189 nM
interaction [8]: showed interaction

RATQMNLNDRLASLYDKV [SEQ ID NO: 6]
Inhibition % (SARS-CoV-2 [3]; 96 h, 100 μM): 82.2%

RVTAMNLNDRLASLYDKV [SEQ ID NO: 7]
Inhibition % (SARS-CoV-2 [3]; 96 h, 100 μM): 92.4%
Influenza A H1N1 Inhib. % (Influenza A H1N1): 70%
Dengue 2 Inhib. % (Dengue 2 virus; 100 μM): 87%
Adenovirus Ad7 Inhib. % (AdV 7 Gomen strain): 69%

RVTQANLNDRLASLYDKV [SEQ ID NO: 8]
Parainfluenza Type 3 Inhib. % [6]: 73%
Inhibition % (SARS-CoV-2 [3]; 96 h, 100 μM): 90.2%
Dengue 2 Inhib. % (Dengue 2 virus; 50 μM): 72%
Bronchial HAE Inhibition % (SARS-CoV-2 [5]; 72 h, 100 μM): 92%
Nasal HAE Inhibition % (SARS-CoV-2 [5]; 72 h, 100 μM): 88%
Bocavirus HBoV-1 Inhib. % (human bocavirus (HBoV)): 87%

RVTQMNANDRLASLYDKV [SEQ ID NO: 9]
Inhibition % (SARS-CoV-2 [3]; 96 h, 100 μM): 83.7%
Influenza A H1N1 Inhib. % (Influenza A H1N1): 89%
Adenovirus Ad7 Inhib. % (AdV 7 Gomen strain): 79%
Bocavirus HBoV-1 Inhib. % (human bocavirus (HBoV)): 75%

RVTQMNLADRLASLYDKV [SEQ ID NO: 16]
Inhibition % (SARS-CoV-2 [3]; 96 h, 100 μM): 79.6%

RVTQMNLNARLASLYDKV [SEQ ID NO: 10]
Inhibition % (SARS-CoV-2 [3]; 96 h, 100 μM): 70.8%

RVTQMNLNDALASLYDKV [SEQ ID NO: 17]
Inhibition % (SARS-CoV-2 [3]; 96 h, 100 μM): 72.7%

RVTQMNLNDRAASLYDKV [SEQ ID NO: 21]
Inhibition % (SARS-CoV-2 [3]; 96 h, 100 μM): 25.5%
inhibition of SARS-CoV-2 in primary cultures of human airway epithelium (SARS-CoV-2 [5]): ≤ 20%

RVTQMNLNDRLAALYDKV [SEQ ID NO: 18]
Inhibition % (SARS-CoV-2 [3]; 96 h, 100 μM): 69.2%

RVTQMNLNDRLASLYAKV [SEQ ID NO: 12]
Inhibition % (SARS-CoV-2 [3]; 96 h, 100 μM): 77.4%

RVTQMNLNDRLASLYDAV [SEQ ID NO: 13]
Herpes simplex HSV-1 Inhib. % ([2]; 50 μM): 78%
Parainfluenza Type 3 Inhib. % [6]: 90%
Inhibition % (SARS-CoV-2 [3]; 96 h, 100 μM): 90.5%
Sincitial respiratory virus Inhib. % [4]: 91%
Adenovirus Ad7 Inhib. % (AdV 7 Gomen strain): 76%
Bronchial HAE Inhibition % (SARS-CoV-2 [5]; 72 h, 50 μM): 89%
Nasal HAE Inhibition % (SARS-CoV-2 [5]; 72 h, 50 μM): 79%

RVTQMNLNDRLVSLYDKV [SEQ ID NO: 11]
Inhibition % (SARS-CoV-2 [3]; 96 h, 100 μM): 73.9%

SEQ ID NO: 19: synthetic peptide related to SEQ ID NO: 1, obtained by solid phase synthesis (RVTQMNLNDRLASLYDKV; Description of the Artificial Sequence synthetic peptide where N6 is a D amino acid)
Inhibition % (SARS-CoV-2 [3]; 50 µM): 91.8%
Sincitial respiratory virus Inhib. % [4]: 75%
Influenza A H1N1 Inhib. % (Influenza A H1N1): 67%
Dengue 2 Inhib. % (Dengue 2 virus; 50 μM): 68%
Bronchial HAE Inhibition % (SARS-CoV-2 [5]; 100 µM): 86%
Nasal HAE Inhibition % (SARS-CoV-2 [5]; 100 µM): 82%
Bocavirus HBoV-1 Inhib. % (human bocavirus (HBoV)): 85%

SEQ ID NO: 20: synthetic peptide related to SEQ ID NO: 1, obtained by solid phase synthesis (RVTQMNLNDRLASLYDKV; Description of the Artificial Sequence synthetic peptide where N8 is a D amino acid)
Herpes simplex HSV-1 Inhib. % ([2]; 100 μM): 70%
Parainfluenza Type 3 Inhib. % [6]: 79%
Inhibition % (SARS-CoV-2 [3]; 50 µM): 69.8%
Bocavirus HBoV-1 Inhib. % (human bocavirus (HBoV)): 67%
